Data from patent publication US20180327367A1, “MACROCYCLIC BROAD SPECTRUM ANTIBIOTICS” (priority 2015, published 2018).
In brackets after ≈: the same amount, converted by molar mass. Where two headings read alike, the source gives them in different places.

How the values were obtained:
Type in all cases: cell-based
[1] = system: Methicillin Resistant Staphylococcus aureus strain USA 300, NRS384; assay: Minimum inhibitory concentration, broth micro-dilution (CLSI), S. aureus; details: Staphylococcus aureus, MRSA / NRS 384 / USA300, 22 h
In short: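 Ten-point 2-fold series began at 4 μg/mL in protocol 2 and 0.5 μg/mL in protocol 3, in cation-adjusted MHB plus 0.002% Tween-80. Bacteria added to OD600 0.0005 final and incubated at 35° C for 22 hours per CLSI microdilution.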

[2] = system: Escherichia coli ATCC 25922; assay: Minimum inhibitory concentration, broth micro-dilution (CLSI), E. coli; details: Escherichia coli, ATCC25922, 22 h
[3] = system: Escherichia coli MC4100 harboring the IMP4213 (E. coli IMP); assay: microbe, parasite or virus in culture; details: Escherichia coli, 22 h
In short: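 Colonies grown 20 hours at 35° C were suspended in cation-adjusted Mueller Hinton Broth with 0.002% Tween-80. Cells were then added to 2-fold compound dilutions starting at 4 or 0.5 μg/mL, at OD600 0.0005.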

[4] = read-out: MIC (μg/mL) S. aureus, MRSA USA 300 NRS384, 35° C., 22 hours
[5] = read-out: MIC (μg/mL) E. coli, E. coli ATCC 25922, 35° C., 22 hours
[6] = read-out: MIC (μg/mL) E. coli IMP, E. coli MC4100 IMP4213, increased outer-membrane permeability, 35° C., 22 hours
[7] = MRSA USA 300 NRS384, 35° C., 22 hours, read-out: MIC (μg/mL) S. aureus
[8] = E. coli ATCC 25922, 35° C., 22 hours, read-out: MIC (μg/mL) E. coli

| SMILES | MIC [1, 4] [µg/mL] | MIC [2, 5] [µg/mL] | MIC [3, 6] [µg/mL] | MIC [1, 7] [µg/mL] | MIC [2, 8] [µg/mL] | MIC ([1]; read-out: MIC (μg/mL) S. aureus) [µg/mL] | MIC ([2]; read-out: MIC (μg/mL) E. coli) [µg/mL] | MIC ([3]; read-out: MIC (μg/mL) E. coli IMP) [µg/mL] |
| --- | --- | --- | --- | --- | --- | --- | --- | --- |
| C[C@@H]1NC(=O)[C@@H](N(C)C(=O)[C@H](CCCCN)NC(=O)c2ccc(-c3ccc(Cl)cc3)cc2)c2ccc(O)c(c2)-c2cc(ccc2O)C[C@@H](C(=O)NCC#N)NC1=O [Compound 416] | 0.5 (≈ 0.629 µM) | > 64 | 2 (≈ 2.52 µM) | – | – | – | – | – |
| C[C@@H]1NC(=O)[C@@H](N(C)C(=O)[C@H](CCCCN)NC(=O)c2ccc(-c3ccc(Cl)cc3)cc2)c2ccc(O)c(c2)-c2cc(ccc2O)C[C@@H](C(=O)N[C@@H](C)C#N)NC1=O [Compound 417] | – | – | 4 (≈ 4.95 µM) | 13 (≈ 16.1 µM) | > 64 | – | – | – |
| C[C@@H]1NC(=O)[C@@H](N(C)C(=O)[C@H](CCCCN)NC(=O)c2ccc(-c3ccc(Cl)cc3)cc2)c2ccc(O)c(c2)-c2cc(ccc2O)C[C@@H](C(=O)N[C@H](C#N)CO)NC1=O [Compound 418] | – | – | > 4 | 4 (≈ 4.85 µM) | > 64 | – | – | – |
| CCCCCCCCCCCC(=O)N[C@@H](CO)C(=O)N(C)[C@@H]1C(=O)N[C@@H](C)C(=O)N[C@H](C(=O)N[C@H](C#N)CC)Cc2ccc(OCCN)c(c2)-c2cc1ccc2OCCN [Compound 419] | – | – | – | – | – | 4 (≈ 4.79 µM) | 32 (≈ 38.3 µM) | 0.75 (≈ 0.898 µM) |
| Cc1cc(C(C)C)ccc1C(=O)N[C@@H](CCN)C(=O)N(C)[C@@H]1C(=O)N[C@@H](C)C(=O)N[C@H](C(=O)NCC#N)Cc2ccc(OCCN)c(c2)-c2cc1ccc2OCCN [Compound 433] | 0.5 (≈ 0.627 µM) | 4 (≈ 5.01 µM) | 0.094 (≈ 0.118 µM) | – | – | – | – | – |
| Cc1cc(C2(C)CC2)ccc1C(=O)N[C@@H](CCN)C(=O)N(C)[C@@H]1C(=O)N[C@@H](C)C(=O)N[C@H](C(=O)NCC#N)Cc2ccc(OCCN)c(c2)-c2cc1ccc2OCCN [Compound 435] | – | – | 0.063 (≈ 0.0778 µM) | 0.5 (≈ 0.617 µM) | 4 (≈ 4.94 µM) | – | – | – |
| Cc1cc(C2CC(c3ccccc3)C2)ccc1C(=O)N[C@@H](CCN)C(=O)N(C)[C@@H]1C(=O)N[C@@H](C)C(=O)N[C@H](C(=O)NCC#N)Cc2ccc(OCCN)c(c2)-c2cc1ccc2OCCN (stereo partly drawn) [Compound 441] | – | – | 0.016 (≈ 0.0181 µM) | 0.063 (≈ 0.0711 µM) | 1 (≈ 1.13 µM) | – | – | – |
| Cc1c(C(=O)N[C@@H](CCN)C(=O)N(C)[C@@H]2C(=O)N[C@@H](C)C(=O)N[C@H](C(=O)NCC#N)Cc3ccc(OCCN)c(c3)-c3cc2ccc3OCCN)cnn1-c1ccc(CC(C)C)cc1 [Compound 444] | – | – | 0.031 (≈ 0.0353 µM) | 0.094 (≈ 0.107 µM) | 3 (≈ 3.42 µM) | – | – | – |
| Cc1cc(-n2cc(C#CC(C)C)cn2)ccc1C(=O)N[C@@H](CCN)C(=O)N(C)[C@@H]1C(=O)N[C@@H](C)C(=O)N[C@H](C(=O)NCC#N)Cc2ccc(OCCN)c(c2)-c2cc1ccc2OCCN [Compound 446] | – | – | 0.012 (≈ 0.0135 µM) | 0.063 (≈ 0.0709 µM) | 0.5 (≈ 0.563 µM) | – | – | – |
| CCCCCCCCc1ccc(C(=O)N[C@@H](CCN)C(=O)N(C)[C@@H]2C(=O)N[C@@H](C)C(=O)N[C@H](C(=O)NCC#N)Cc3ccc(OCCN)c(c3)-c3cc2ccc3OCCN)c(CCC(=O)O)c1 [Compound 447] | – | – | 0.012 (≈ 0.013 µM) | 0.13 (≈ 0.14 µM) | 2 (≈ 2.16 µM) | – | – | – |
| CCCCCCCCc1ccc(C(=O)N[C@@H](CCN)C(=O)N(C)[C@@H]2C(=O)N[C@@H](C)C(=O)N[C@H](C(=O)NCC#N)Cc3ccc(OCCN)c(c3)-c3cc2ccc3OCCN)c(CCC#N)c1 [Compound 449] | 0.094 (≈ 0.104 µM) | 1 (≈ 1.1 µM) | 0.063 (≈ 0.0694 µM) | – | – | – | – | – |
| CCCCCCCCc1ccc(C(=O)N[C@@H](CCN)C(=O)N(C)[C@@H]2C(=O)N[C@@H](C)C(=O)N[C@H](C(=O)NCC#N)Cc3ccc(OCCN)c(c3)-c3cc2ccc3OCCN)c(CCC(N)=O)c1 [Compound 451] | – | – | 0.016 (≈ 0.0173 µM) | 0.023 (≈ 0.0249 µM) | 2 (≈ 2.16 µM) | – | – | – |
| CCCCCCCCCCN(CCN)CCC(=O)N(C)[C@@H]1C(=O)N[C@@H](C)C(=O)N[C@H](C(=O)NCC#N)Cc2ccc(OCCN)c(c2)-c2cc1ccc2OCCN [Compound 452] | 0.19 (≈ 0.24 µM) | 64 (≈ 80.8 µM) | 2 (≈ 2.53 µM) | – | – | – | – | – |
| CCCCCCCCCCCC(=O)N[C@@H](CCC#N)C(=O)N(C)[C@@H]1C(=O)N[C@@H](C)C(=O)N[C@H](C(=O)NCC#N)Cc2ccc(OCCN)c(c2)-c2cc1ccc2OCCN [Compound 455] | – | – | 0.5 (≈ 0.602 µM) | 0.5 (≈ 0.602 µM) | 32 (≈ 38.6 µM) | – | – | – |
| CCCCCCCCCCCCCC(=O)N[C@@H](CCN)C(=O)N(C)[C@@H]1C(=O)N[C@@H](C)C(=O)N[C@H](C(=O)NCC#N)Cc2ccc(OCCO)c(c2)-c2cc1ccc2OCCO [Compound 458] | – | – | 0.0078 (≈ 0.00918 µM) | 0.25 (≈ 0.294 µM) | 16 (≈ 18.8 µM) | – | – | – |
| CCCCCCc1ccc(C(=O)N[C@@H](CCN)C(=O)N(C)[C@@H]2C(=O)N[C@@H](C)C(=O)N[C@H](C(=O)NCC#N)Cc3ccc(O)c(c3)-c3cc2ccc3O)c(C)c1 [Compound 466] | – | – | 0.063 (≈ 0.0836 µM) | 0.25 (≈ 0.332 µM) | 64 (≈ 84.9 µM) | – | – | – |
